Data taken from patent publication US7064120B2, “Tricyclic pyridyl carboxamides and derivatives thereof tocolytic oxytocin receptor antagonists” (Wyeth, priority 2001, dated 2006).

Molecular target: T1, human vasopressin V1a receptor subtype (Homo sapiens, UniProt P37288)
T1 construct: host or cells: CHO cells, stably transfected (pZeoSV vector for the Thibonnier line)
Test: Vasopressin binding in CHO cell membranes expressing human vasopressin V1a subtype receptors ([3H]Manning ligand radioligand binding)
Details: 100 nM
Procedure: Vasopressin Binding in Chinese Hamster Ovary Cell Membranes Expressing Human Vasopressin V1a Subtype Receptors
The trypsin is removed by aspiration and the cells dislodged by tapping. Cell Culture medium (e.g. 30 mL for 1:30 split) is immediately added and mixed well to inactivate trypsin. 1 mL of detached cells is added to new culture flasks containing fresh cell culture medium (e.g., into 25 mL per T-150 flask), and mixed gently. The cells are incubated at 37° C. in 5% CO2. The medium is changed at 3 to 4 days interval (or as appropriate). […] All steps are done under sterile conditions.
The cells are washed twice gently with Hank's Balanced Salt solution (e.g,. use 10 mL per T-150 flask). […] The contents are transferred to centrifuge tubes (50 mL) kept in an ice bath. All subsequent steps are done at 4° C. The tubes are centrifuged at 300×g for 15 min (1380 rpm on SORVAL, Model RT6000D, using the rotor for 50 mL tubes). The supernatant is discarded and the cells suspended in homogenizing buffer(10 mM Tris-HCl containing 0.25 M sucrose and 1 mM EDTA, pH 7.4) ensuring that the volume of the buffer is about ten times the volume of the cell pellet. The cells are pooled into a centrifuge tube (50 mL) and homogenized with Polytron at setting 6 for 10 sec. The homogenate is transferred into a Potter-Elvjehm homogenizer and homogenized with 3 strokes. The homogenate is centrifuged at 1500×g for 10 min at 4° C. (3100 rpm using SORVAL, model RT6000D, using the rotor for 50 mL tubes). The pellet is discarded. The supernatant is centrifuged at 100,000×g for 60 min. at 4° C. (Beckman L8-80M ultracentrifuge; spin at 37,500 rpm with rotor type 70 Ti for 50 mL tubes; 38,000 rpm with type 80Ti for 15 mL tubes; or 35,800 rpm with rotor type 45Ti). The supernantant is discarded and the pellet suspended in 3 to 4 mL of Tris buffer (50 mM TRIS-HCl, pH 7.4). The protein content is estimated by the Bradford or Lowry method. The volume of the membrane suspension is adjusted with the membrane buffer (50 mM Tris-HCl containing 0.1% BSA and 0.1 mM PMSF) to give 3.0 mg/mL (or as appropriate) of protein. The membranes are aliquoted and stored at −70° C.
In wells of a 96-well format microtiter plate, is added 90, 110 or 130 μL (to make up a final volume of 200 μL) of assay buffer containing 50 mM of Tris-HCl (pH 7.4), BSA (heat inactivated, protease-free), […], 1 mg % aprotinin, 1 mg % leupeptin, 2 mg % 1,10-phenanthroline, 10 mg % trypsin inhibitor, and 0.1 mM PMSF. The inhibitors are added on the day of the experiment. The components are mixed at room temperature, and then kept in ice bath following adjustment of the pH to 7.4. […] 20 μL of 50% DMSO is added for Manning and other peptide ligands and the assay buffer volume is adjusted accordingly. To each well is added 50 μL of frozen membrane suspension thawed immediately prior to use and diluted in the assay buffer to the required concentration (equivalent to 25 to 50 μg of protein/well as needed). 20 μL of 8 nM [^3H]Manning ligand in the assay buffer, prepared just before use, is added, and incubated at room temperature for 60 min. shaking the plate on a mechanical shaker for the first 15 min. The incubation is stopped by rapid filtration of the plate contents followed by wash with ice-cold buffer (50 mM Tris-HCl, pH 7.4) using a cell harvester (Tomtek and Printed filtermat-B filter paper). The filter paper is thoroughly dried (7–12 min. in a microwave oven) and impregnated with MeltiLex B/H melt-on scintillation wax sheets and the radioactivity counted in a betaplate scintillation counter.
Binding data is either reported as percent inhibition at a certain concentration or if an IC50 was calculated, as a nanomolar concentration.

T1 sequence (P37288 whole entry): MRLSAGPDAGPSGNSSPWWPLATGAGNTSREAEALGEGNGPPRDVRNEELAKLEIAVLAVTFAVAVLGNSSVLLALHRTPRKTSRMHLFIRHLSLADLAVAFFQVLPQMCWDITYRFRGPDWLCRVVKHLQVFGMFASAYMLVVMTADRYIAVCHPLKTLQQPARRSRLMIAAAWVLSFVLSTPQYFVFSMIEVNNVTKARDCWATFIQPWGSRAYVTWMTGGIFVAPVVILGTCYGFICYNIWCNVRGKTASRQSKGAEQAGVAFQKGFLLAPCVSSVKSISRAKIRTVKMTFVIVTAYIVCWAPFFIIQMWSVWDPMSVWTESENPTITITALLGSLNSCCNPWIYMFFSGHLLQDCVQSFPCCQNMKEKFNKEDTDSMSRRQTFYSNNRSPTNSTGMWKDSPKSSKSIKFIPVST

| Structure (SMILES) | inhibition at 0.1 µM | V1a % inhibition @ 100 nM |
| --- | --- | --- |
| COc1cc(-c2ccccc2C)c(Cl)cc1C(=O)N1Cc2ccc(C(=O)NCCc3ccccn3)n2Cc2ccccc21 [Example 55, 10-[(6-Chloro-3-methoxy-2′-methyl-[1,1′-biphenyl]-4-yl)carbonyl]-N-[2-(2-pyridinyl)ethyl]-10,11-dihydro-5H-pyrrolo[2,1-c][1,4]benzodiazepine-3-carboxamide] | -7% | – |
| COc1cccc(-c2cc(OC)c(C(=O)N3Cc4ccc(C(=O)NCCc5ccccn5)n4Cc4ccccc43)cc2Cl)c1 [Example 56, 10-[(6-Chloro-3,3′-dimethoxy-[1,1′-biphenyl]-4-yl)carbonyl]-N-[2-(2-pyridinyl)ethyl]-10,11-dihydro-5H-pyrrolo[2,1-c][1,4]benzodiazepine-3-carboxamide] | -11% | – |
| COc1cc(C(=O)N2Cc3ccc(C(=O)NCCc4ccccn4)n3Cc3ccccc32)ccc1-c1cccc2ccccc12 [Example 57, 10-[3-Methoxy-4-(naphthalen-1-yl)benzoyl]-N-[2-(2-pyridinyl)ethyl]-10,11-dihydro-5H-pyrrolo[2,1-c][1,4]benzodiazepine-3-carboxamide] | 2% | – |
| COc1ccccc1-c1ccc(C(=O)N2Cc3ccc(C(=O)NCCc4ccccn4)n3Cc3ccccc32)cc1OC [Example 58, 10-[(2,2′-Dimethoxy-[1,1′-biphenyl]-4-yl)carbonyl]-N-[2-(2-pyridinyl)ethyl]-10,11-dihydro-5H-pyrrolo[2,1-c][1,4]benzodiazepine-3-carboxamide] | 9% | – |
| COc1cccc(-c2ccc(C(=O)N3Cc4ccc(C(=O)NCCc5ccccn5)n4Cc4ccccc43)cc2OC)c1 [Example 59, 10-[(2,3′-Dimethoxy-[1,1′-biphenyl]-4-yl)carbonyl]-N-[2-(2-pyridinyl)ethyl]-10,11-dihydro-5H-pyrrolo[2,1-c][1,4]benzodiazepine-3-carboxamide] | 12% | – |
| O=C(NCCc1ccccn1)c1ccc2n1Cc1ccccc1N(C(=O)c1ccc(-c3cccc4ccccc34)cc1Cl)C2 [Example 60, 10-[2-Chloro-4-(naphthalen-1-yl)benzoyl]-N-[2-(2-pyridinyl)ethyl]-10,11-dihydro-5H-pyrrolo[2,1-c][1,4]benzodiazepine-3-carboxamide] | 4% | – |
| Cc1cc(C(=O)N2Cc3ccc(C(=O)NCCc4ccccn4)n3Cc3ccccc32)ccc1-c1ccccc1C(F)(F)F [Example 61, 10-{[2-Methyl-2′-trifluoromethyl=[1,1′-biphenyl]-4-yl]carbonyl}-N-[2-(2-pyridinyl)ethyl]-10,11-dihydro-5H-pyrrolo[2,1-c][1,4]benzodiazepine-3-carboxamide] | – | 6% |
| COc1ccccc1-c1ccc(C(=O)N2Cc3ccc(C(=O)N(C)CCc4ccccn4)n3Cc3ccccc32)cc1OC [Example 64, 10-[(2,2′-Dimethoxy-[1,1′-biphenyl]-4-yl)carbonyl]-N-methyl-N-[2-(2-pyridinyl)ethyl]-10,11-dihydro-5H-pyrrolo[2,1-c][1,4]benzodiazepine-3-carboxamide] | 21% | – |
| COc1cc(C(=O)N2Cc3ccc(C(=O)N4CCN(c5ccccn5)CC4)n3Cc3ccccc32)ccc1-c1cccc2ccccc12 [Example 83] | – | 9% |
| COc1cccc(-c2ccc(C(=O)N3Cc4ccc(C(=O)NCc5ccncc5)n4Cc4ccccc43)cc2OC)c1 [Example 98] | – | 24% |
| COc1cc(C(=O)N2Cc3ccc(C(=O)N(C)Cc4cccnc4)n3Cc3ccccc32)ccc1-c1ccccc1C [Example 106, 10-[(2-Methoxy-2′-methyl-[1,1′-biphenyl]-4-yl)carbonyl]-N-methyl-N-(3-pyridinylmethyl)-10,11-dihydro-5H-pyrrolo[2,1-c][1,4]benzodiazepine-3-carboxamide] | 68% | – |
| COc1cc(-c2ccccc2C)c(Cl)cc1C(=O)N1Cc2ccc(C(=O)N(C)Cc3cccnc3)n2Cc2ccccc21 [Example 107, 10-[(6-Chloro-3-methoxy-2′-methyl-[1,1′-biphenyl]-4-yl)carbonyl]-N-methyl-N-(3-pyridinylmethyl)-10,11-dihydro-5H-pyrrolo[2,1-c][1,4]benzodiazepine-3-carboxamide] | 12% | – |
| COc1cccc(-c2cc(OC)c(C(=O)N3Cc4ccc(C(=O)N(C)Cc5cccnc5)n4Cc4ccccc43)cc2Cl)c1 [Example 108, 10-[(6-Chloro-3,3′-dimethoxy-[1,1′-biphenyl]-4-yl)carbonyl]-N-methyl-N-(3-pyridinylmethyl)-10,11-dihydro-5H-pyrrolo[2,1-c][1,4]benzodiazepine-3-carboxamide] | 4% | – |
| COc1cc(C(=O)N2Cc3ccc(C(=O)N(C)Cc4cccnc4)n3Cc3ccccc32)ccc1-c1cccc2ccccc12 [Example 109, 10-[3-Methoxy-4-(naphthalen-1-yl)benzoyl]-N-methyl-N-(3-pyridinylmethyl)-10,11-dihydro-5H-pyrrolo[2,1-c][1,4]benzodiazepine-3-carboxamide] | 7% | – |
| COc1cccc(-c2ccc(C(=O)N3Cc4ccc(C(=O)N(C)Cc5cccnc5)n4Cc4ccccc43)cc2OC)c1 [Example 110] | – | 49% |
| CN(Cc1cccnc1)C(=O)c1ccc2n1Cc1ccccc1N(C(=O)c1ccc(-c3cccc4ccccc34)cc1Cl)C2 [Example 111, 10-[2-Chloro-4-(naphthalen-1-yl)benzoyl]-N-methyl-N-(3-pyridinylmethyl)-10,11-dihydro-5H-pyrrolo[2,1-c][1,4]benzodiazepine-3-carboxamide] | 4% | – |
| Cc1ccccc1-c1ccc(C(=O)N2Cc3ccc(C(=O)N4CCN(c5ccncc5)CC4)n3Cc3ccccc32)cc1C [Example 114, {10-[(2,2′-Dimethyl-[1,1′-biphenyl]-4-yl)carbonyl]-10,11-dihydro-5H-pyrrolo[2,1-c][1,4]benzodiazepin-3-yl}[4-(4-pyridinyl)-1-piperazinyl]methanone] | 56% | – |
| COc1cccc(-c2ccc(C(=O)N3Cc4ccc(C(=O)N5CCN(c6ccncc6)CC5)n4Cc4ccccc43)cc2C)c1 [Example 115, {10-[(3′-Methoxy-2-methyl-[1,1′-biphenyl]-4-yl)carbonyl]-10,11-dihydro-5H-pyrrolo[2,1-c][1,4]benzodiazepin-3-yl}[4-(4-pyridinyl)-1-piperazinyl]methanone] | 22% | – |
| COc1ccccc1-c1ccc(C(=O)N2Cc3ccc(C(=O)N4CCN(c5ccncc5)CC4)n3Cc3ccccc32)cc1 [Example 116, {10-[(2′-Methoxy-[1,1′-biphenyl]-4-yl)carbonyl]-10,11-dihydro-5H-pyrrolo[2,1-c][1,4]benzodiazepin-3-yl}[4-(4-pyridinyl)-1-piperazinyl]methanone] | 77% | – |
| Cc1ccccc1-c1ccc(C(=O)N2Cc3ccc(C(=O)N4CCN(c5ccncc5)CC4)n3Cc3ccccc32)cc1 [Example 117, {10-[(2′-Methyl-[1,1′-biphenyl]-4-yl)carbonyl]-10,11-dihydro-5H-pyrrolo[2,1-c][1,4]benzodiazepin-3-yl}[4-(4-pyridinyl)-1-piperazinyl]methanone] | 1% | – |
| COc1cc(C(=O)N2Cc3ccc(C(=O)N4CCN(c5ccncc5)CC4)n3Cc3ccccc32)ccc1-c1ccccc1C [Example 118] | – | 62% |
| COc1cc(-c2ccccc2C)c(Cl)cc1C(=O)N1Cc2ccc(C(=O)N3CCN(c4ccncc4)CC3)n2Cc2ccccc21 [Example 119, {10-[(6-Chloro-3-methoxy-2′-methyl-[1,1′-biphenyl]-4-yl)carbonyl]-10,11-dihydro-5H-pyrrolo[2,1-c][1,4]benzodiazepin-3-yl}[4-(4-pyridinyl)-1-piperazinyl]methanone] | 9% | – |
